Assays:
[1] = biological target: Acetylcholinesterase (Homo sapiens) (UniProt P22303); experiment: Inhibition of human erythrocyte AChE
Homo sapiens = species on record: Homo sapiens; experiment: Toxicity in human assessed as incidence of abdominal cramps at 22.5 to 30 mg/day; type: organism-based, Abdomen; details: in vivo
[2] = Tmax in po dosed human; type: ADME, organism-based; details: in vivo

Chain of Acetylcholinesterase (Homo sapiens) (P22303 whole entry): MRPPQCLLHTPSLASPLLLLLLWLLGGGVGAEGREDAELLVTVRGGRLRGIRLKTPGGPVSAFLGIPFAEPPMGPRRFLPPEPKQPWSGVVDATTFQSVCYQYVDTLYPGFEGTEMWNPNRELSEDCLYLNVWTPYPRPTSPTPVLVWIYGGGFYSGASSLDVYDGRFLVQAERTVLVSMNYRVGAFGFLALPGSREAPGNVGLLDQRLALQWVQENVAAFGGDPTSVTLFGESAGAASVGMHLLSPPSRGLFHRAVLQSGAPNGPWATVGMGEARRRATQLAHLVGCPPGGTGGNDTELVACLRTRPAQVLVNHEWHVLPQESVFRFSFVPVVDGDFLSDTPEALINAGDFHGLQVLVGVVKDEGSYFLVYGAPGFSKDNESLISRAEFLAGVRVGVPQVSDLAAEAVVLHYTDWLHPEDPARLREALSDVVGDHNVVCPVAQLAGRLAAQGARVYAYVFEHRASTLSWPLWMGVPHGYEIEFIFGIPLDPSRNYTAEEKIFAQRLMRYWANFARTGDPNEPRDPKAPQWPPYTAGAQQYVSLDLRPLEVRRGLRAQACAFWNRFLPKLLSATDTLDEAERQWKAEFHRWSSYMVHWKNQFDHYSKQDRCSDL

## COc1cc(NC(C)CCCN)c2ncccc2c1 (stereo not drawn) [PRIMAQUINE]
[1]
  IC33: 30 µM
Homo sapiens
  Activity: 10%
[2]
  Tmax: 12 h

— ChEMBL document CHEMBL1137714, “Primaquine revisited six decades after its discovery” (Eur J Med Chem, 2009)
